Values joined by “and” are separate entries in the source; they are usually repeats but may differ in a detail not shown here. Equal values may be shown once. “Also recorded” adds a separate entry of the source. Read-outs that look alike come from different tables or passages of the source. Where no end group is shown, it is not given here.
Assays:
Fusarium oxysporum = type: cell-based; set-up: key to Plate antimicrobial activity test Fusarium oxysporum, level: a case where hyphae extended to the entire well and no antimicrobial activity was found is defined as “level 0,”; a case where hyphae extended to less than a half of the well and thus the peptide inhibited the growth of the hyphae is defined as “level 1,”; a case where ungerminated spores were present and the peptide partially inhibited the germination is defined as “level 2,”; a case where all spores were ungerminated and the peptide completely inhibited the germination is defined as “level 3.”
Pyricularia oryzae = type: cell-based; set-up: key to Plate antimicrobial activity test Pyricularia oryzae, level: a case where hyphae extended to the entire well and no antimicrobial activity was found is defined as “level 0,”; a case where hyphae extended to less than a half of the well and thus the peptide inhibited the growth of the hyphae is defined as “level 1,”; a case where ungerminated spores were present and the peptide partially inhibited the germination is defined as “level 2,”; a case where all spores were ungerminated and the peptide completely inhibited the germination is defined as “level 3.”; conditions: for Plate antimicrobial activity test Pyricularia oryzae, level: 25° C. for 1 day or 2 days, microscopic observation
[1] = test system: Colletotrichum orbiculare; type: cell-based; set-up: key to Plate antimicrobial activity test Colletotrichum orbiculare, level: a case where hyphae extended to the entire well and no antimicrobial activity was found is defined as “level 0,”; a case where hyphae extended to less than a half of the well and thus the peptide inhibited the growth of the hyphae is defined as “level 1,”; a case where ungerminated spores were present and the peptide partially inhibited the germination is defined as “level 2,”; a case where all spores were ungerminated and the peptide completely inhibited the germination is defined as “level 3.”; conditions: for Plate antimicrobial activity test Colletotrichum orbiculare, level: 25° C. for 1 day or 2 days, microscopic observation
[2] = test system: Colletotrichum destructivum; type: cell-based; set-up: key to Plate antimicrobial activity test Colletotrichum destructivum, level: a case where hyphae extended to the entire well and no antimicrobial activity was found is defined as “level 0,”; a case where hyphae extended to less than a half of the well and thus the peptide inhibited the growth of the hyphae is defined as “level 1,”; a case where ungerminated spores were present and the peptide partially inhibited the germination is defined as “level 2,”; a case where all spores were ungerminated and the peptide completely inhibited the germination is defined as “level 3.”; conditions: for Plate antimicrobial activity test Colletotrichum destructivum, level: 25° C. for 1 day or 2 days, microscopic observation
Botrytis cinerea [3] = experiment: Botrytis cinerea leaf inoculation test (tomato leaf); type: in vivo; conditions: 25° C. for 2 days
Description: In the present example, a suspension comprising Botrytis cinerea and a peptide to be tested was dropped on a plant leaf, and lesions were then observed by visual inspection to evaluate the antimicrobial activity of the tested peptide. First, the pores of Botrytis cinerea were suspended in a potato dextrose broth (PDB) to result in a spore concentration of 5×10^5 spores/ml, so as to prepare a PDB suspension spore solution. Subsequently, a peptide to be tested (TsORF6-1) was added to the PDB suspension spore solution, so that the final concentration of the peptide to be tested became 0 μM, 1 μM, 10 μM or 100 μM. Thereafter, 10 μl each of the PDB suspension spore solution containing the peptide to be tested was dropped on the front side and the back side of the leaf of tomato (variety name: “Momotaro Fight”). In this condition, incubation was carried out at 25° C. for 2 days. Thereafter, the front and back sides of the leaf were observed by visual inspection.

[4] = test system: Xanthomonas oryzae pv. oryzae
Botrytis cinerea [5] = type: cell-based; set-up: key to Plate antimicrobial activity test Botrytis cinerea, level: a case where hyphae extended to the entire well and no antimicrobial activity was found is defined as “level 0,”; a case where hyphae extended to less than a half of the well and thus the peptide inhibited the growth of the hyphae is defined as “level 1,”; a case where ungerminated spores were present and the peptide partially inhibited the germination is defined as “level 2,”; a case where all spores were ungerminated and the peptide completely inhibited the germination is defined as “level 3.”; conditions: for Plate antimicrobial activity test Botrytis cinerea, level: 25° C. for 1 day or 2 days, microscopic observation
[6] = test system: Pseudomonas syringae pv. tomato
[7] = test system: Erwinia carotovora subsp. carotovora; conditions: 100 μM
[8] = test system: Colletotrichum destructivum; experiment: Colletotrichum destructivum leaf inoculation test (Chinese cabbage leaf); type: in vivo; conditions: 25° C. for 4 days; for lesion of Colletotrichum destructivum on Chinese cabbage leaf, result in words: FIG. 3; for Leaf inoculation test Chinese cabbage/Colletotrichum destructivum: lesions by visual inspection, symbols ◯/Δ/X not defined
Description: In the present example, a suspension comprising Colletotrichum destructivum and a peptide to be tested was dropped on a plant leaf, and lesions were then observed by visual inspection to evaluate the antimicrobial activity of the tested peptide. First, the pores of Colletotrichum destructivum were suspended in water to result in a spore concentration of 5×10^5 spores/ml, so as to prepare a water suspension of spores. Subsequently, a peptide to be tested (TsORF6-1) was added to the water suspension of spores, so that the final concentration of the peptide to be tested became 0 μM, 1 μM, 10 μM or 100 μM. Thereafter, 10 μl each of the water suspension of spores containing the peptide to be tested was dropped on the front side and the back side of the leaf of Chinese cabbage (variety name: “Kigokoro 85”). In this condition, incubation was carried out at 25° C. for 4 days. Thereafter, the front and back sides of the leaf were observed by visual inspection.

Ralstonia solanacearum = conditions: 100 μM
[9] = (FIG. 1, Table 3), concentration not given

| Sequence | Plate antimicrobial activity test Fusarium oxysporum, level (Fusarium oxysporum) | Plate antimicrobial activity test Pyricularia oryzae, level (Pyricularia oryzae; peptide 1 μM) | Plate antimicrobial activity test Pyricularia oryzae, level (Pyricularia oryzae; peptide 10 μM) | Plate antimicrobial activity test Pyricularia oryzae, level (Pyricularia oryzae; peptide 100 μM) | Plate antimicrobial activity test Colletotrichum orbiculare, level ([1]; peptide 1 μM) | Plate antimicrobial activity test Colletotrichum orbiculare, level ([1]; peptide 10 μM) | Plate antimicrobial activity test Colletotrichum orbiculare, level ([1]; peptide 100 μM) | Plate antimicrobial activity test Colletotrichum destructivum, level ([2]; peptide 1 μM) | Plate antimicrobial activity test Colletotrichum destructivum, level ([2]; peptide 10 μM) | Plate antimicrobial activity test Colletotrichum destructivum, level ([2]; peptide 100 μM) | Plate antimicrobial activity test Botrytis cinerea, level (Botrytis cinerea [5]; peptide 1 μM) | Plate antimicrobial activity test Botrytis cinerea, level (Botrytis cinerea [5]; peptide 10 μM) | Plate antimicrobial activity test Botrytis cinerea, level (Botrytis cinerea [5]; peptide 100 μM) | Leaf inoculation test Chinese cabbage/Colletotrichum destructivum ([8]; peptide 10 μM) | Leaf inoculation test Chinese cabbage/Colletotrichum destructivum ([8]; peptide 100 μM) | further results |
| --- | --- | --- | --- | --- | --- | --- | --- | --- | --- | --- | --- | --- | --- | --- | --- | --- |
| MKVMIVVKTKVKNKKVAKMMVK [TsORF6-1] | 2 and 0 | 0 | 0 | 2 | 0 | 0 | 2 | 0 | 0 | 3 | 0 | 0 | 3 | ◯ | ◯ | germination of Fusarium oxysporum, result in words (Fusarium oxysporum): completely inhibited in terms of germination; also recorded: could inhibit germination; germination of Pyricularia oryzae, result in words (Pyricularia oryzae; [9]): completely inhibited in terms of germination; also recorded: could inhibit germination; germination of Colletotrichum orbiculare, result in words [1, 9]: completely inhibited in terms of germination; also recorded: could inhibit germination; germination of Colletotrichum destructivum, result in words [2, 9]: completely inhibited in terms of germination; also recorded: could inhibit germination; Leaf inoculation test Tomato/Botrytis cinerea (Botrytis cinerea [3]; peptide 100 μM, tomato leaf, lesions by visual inspection, symbols ◯/Δ/X not defined): ◯; Inhibitory rate Xanthomonas oryzae pv. oryzae ([4]; 100 μM, calculated from OD600 versus water added): 47.6%; OD600 Xanthomonas oryzae pv. oryzae ([4]; 100 μM, cultured at 28° C. a whole day and night): 1.1; growth of Xanthomonas oryzae pv. oryzae, result in words ([4]; Table 4): could inhibit the growth; germination of Botrytis cinerea, result in words (Botrytis cinerea [5]; [9]): completely inhibited in terms of germination; also recorded: could inhibit germination; growth of Pseudomonas syringae pv. tomato, result in words [6]: could inhibit the growth; Inhibitory rate Pseudomonas syringae pv. tomato ([6]; 100 μM): 90.6%; OD600 Pseudomonas syringae pv. tomato ([6]; 100 μM): 0.2; Inhibitory rate Erwinia carotovora subsp. carotovora [7]: −14.9%; OD600 Erwinia carotovora subsp. carotovora [7]: 2.2; lesion of Colletotrichum destructivum on Chinese cabbage leaf, result in words ([8]; water suspension of spores containing 10 μl peptide): a lesion of Colletotrichum destructivum was not observed; lesion of Colletotrichum destructivum on Chinese cabbage leaf, result in words ([8]; water suspension of spores containing 100 μl peptide): a lesion of Colletotrichum destructivum was not observed; Inhibitory rate Ralstonia solanacearum (Ralstonia solanacearum; calculated from OD600 versus water added): −5.2%; OD600 Ralstonia solanacearum (Ralstonia solanacearum; cultured at 28° C. a whole day and night): 2.7 |
| MKVMIVVKTKVKNKKVAKMMVKEDEKNKRVITMKEELMVVAEEEAYRRV RGGMGW (MKVMIVVKTKVKNKKVAKMMVKEDEKNKRVITMKEELMVVAEEEAYRRVRGGMGW; listed as Solanum lycopersicum) [TsORF6, peptide consisting of 55 amino acid residues identified in tomato xylem sap; total chain] | 3 and 0 | 0 | 0 | 2 | 0 | 0 | 1 | 0 | 0 | 0 | 0 | 0 | 3 | ◯ | ◯ | lesion of Botrytis cinerea on tomato leaf, result in words (Botrytis cinerea [3]; FIG. 2, PDB suspension spore solution containing 100 μl peptide): a lesion of Botrytis cinerea was not observed |

From US12396461B2, “Functional peptides having antimicrobial activity against phytopathogenic microorganisms” (TOYOTA JIDOSHA KABUSHIKI KAISHA, priority 2019, dated 2025)
